{"source": "patent US20070224253A1", "about": "“Transdermal Delivery of Meptazinol” (Shire Pharmaceuticals Inc., priority 2005, published 2007)", "key": {"[1]": {"assay": "Yellow discoloration of the meptazinol gel on standing, effect of antioxidants", "format": "physicochemical", "details": "antioxidant included in meptazinol gel; BHT 0.02-0.05%, ascorbic acid 0.05%"}, "[2]": {"assay": "Transdermal permeation through human skin in Franz cell in vitro apparatus", "details": "for Skin flux / permeation compared with other forms (in words): Franz cell; for Flux: individual Franz cell/donor; for Flux / Mean flux ± sd: vehicle 2% oleic acid: 2% dimethyl isosorbide: 96% propylene glycol; for Mean flux ± sd: mean over donors"}, "[3]": {"assay": "Saturated solubility in potential delivery vehicle (oleic acid/dimethyl isosorbide/propylene glycol)", "details": "in 2% oleic acid: 2% dimethyl isosorbide: 96% propylene glycol; for solubility: 2% oleic acid: 2% dimethyl isosorbide: 96% propylene glycol, 32 °C, organic solvent or mixture, thermodynamic from solid, Solubility at 32° C."}, "Aqueous solubility": {"assay": "Aqueous solubility", "format": "physicochemical", "details": "aqueous solution"}, "[4]": {"details": "cited from earlier work"}, "[5]": {"details": "estimated from visual assessment only"}, "[6]": {"details": "listed as M HCl (1), hydrochloride"}, "[7]": {"details": "listed as M HCl (2), hydrochloride"}}, "note": "Values joined by “and” are separate entries in the source; they are usually repeats but may differ in a detail not shown here. Identical values can stand only once. “Also recorded” adds a separate entry of the source. Counter-ions that a name gives are not always drawn. Marks after values point to notes of the source that are not given here.", "data": [{"compound": "O=C1O[C@H]([C@@H](O)CO)C(O)=C1O", "note": "[Ascorbic acid]", "values": [{"measurement": "Effect on yellow discoloration of the gel", "setting": "[1]", "result": "some reduction"}]}, {"compound": "CC1(C)C2CCC1(CS(=O)(=O)O)C(=O)C2.CCC1(c2cccc(O)c2)CCCCN(C)C1", "note": "(stereo not drawn) [Meptazinol camsylate]", "values": [{"measurement": "Skin flux / permeation compared with other forms (in words)", "setting": "[2]", "result": "less effective in improving flux"}, {"measurement": "Flux", "setting": "[2]; listed as M camsylate", "result": "78.1 ug/cm^2/h and 110.9 ug/cm^2/h and 27.3 ug/cm^2/h and 45.1 ug/cm^2/h and 204.2 ug/cm^2/h and 9.5 ug/cm^2/h"}, {"measurement": "Mean flux ± sd", "setting": "[2]", "result": "79.2 ± 71.2", "unit": "ug/cm^2/h"}, {"measurement": "Solubility at 32° C.", "setting": "[3]; [5]", "result": "˜250** mg/ml"}]}, {"compound": "CCC1(c2cccc(O)c2)CCCCN(C)C1", "note": "(stereo not drawn) [Meptazinol free base, Meptazinol]", "values": [{"measurement": "solubility", "setting": "Aqueous solubility", "result": 0.17, "unit": "mg/mL"}, {"measurement": "Plasma half-life", "setting": "[4]; in vivo", "result": "1.5 to 2.0", "unit": "h"}, {"measurement": "Fraction of an oral dose removed by first pass metabolism through the liver", "setting": "[4]; oral", "result": "up to 98.1%"}, {"measurement": "Oral bioavailability, reported mean values", "setting": "[4]; oral", "result": "4-9%"}, {"measurement": "Skin flux / permeation compared with other forms (in words)", "setting": "[2]", "result": "unexpectedly poor flux in comparison to the various salt forms"}, {"measurement": "solubility", "setting": "[3]; [5]", "result": "~20", "unit": "mg/mL"}]}, {"compound": "CCC1(c2cccc(O)c2)CCCCN(C)C1", "note": "(stereo not drawn) [Meptazinol hydrochloride, reference compound]", "values": [{"measurement": "Skin flux / permeation compared with other forms (in words)", "setting": "[2]; listed as hydrochloride, hydrochloride", "result": "more rapidly absorbed"}, {"measurement": "Skin flux / permeation compared with other forms (in words)", "setting": "[2]; listed as meptazinol hydrochloride, hydrochloride", "result": "much better permeant than the maleate; also recorded: higher flux rate than the camsylate; also recorded: substantially greater flux than the free base; also recorded: several times better than the meptazinol free base"}, {"measurement": "Flux", "setting": "[2]; [6]", "result": "135.7 ug/cm^2/h and 218.0 ug/cm^2/h and 132.6 ug/cm^2/h and 197.1 ug/cm^2/h and 194.0 ug/cm^2/h and 162.5 ug/cm^2/h"}, {"measurement": "Flux", "setting": "[2]; [7]", "result": "66.5 ug/cm^2/h and 222.6 ug/cm^2/h and 213.4 ug/cm^2/h (2×)"}, {"measurement": "Mean flux ± sd", "setting": "[2]; [6]", "result": "173.3 ± 35.2", "unit": "ug/cm^2/h"}, {"measurement": "Mean flux ± sd", "setting": "[2]; [7]", "result": "179.0 ± 75.1", "unit": "ug/cm^2/h"}, {"measurement": "solubility", "setting": "[3]; measured by HPLC", "result": 78, "unit": "mg/mL"}]}, {"compound": "Cc1c(C)c2c(c(C)c1O)CC[C@@](C)(CCC[C@H](C)CCC[C@H](C)CCCC(C)C)O2", "note": "[alpha tocopherol]", "values": [{"measurement": "Effect on yellow discoloration of the gel", "setting": "[1]", "result": "did not"}]}, {"compound": "COc1ccc(O)c(C(C)(C)C)c1", "note": "[butylated hydroxy anisole]", "values": [{"measurement": "Effect on yellow discoloration of the gel", "setting": "[1]", "result": "did not"}]}, {"compound": "Cc1cc(C(C)(C)C)c(O)c(C(C)(C)C)c1", "note": "[butylated hydroxy toluene]", "values": [{"measurement": "Effect on yellow discoloration of the gel", "setting": "[1]", "result": "completely eliminated"}]}, {"compound": "Oc1cccc(O)c1O", "note": "[pyrogallol]", "values": [{"measurement": "Effect on yellow discoloration of the gel", "setting": "[1]", "result": "did not"}]}, {"compound": "Meptazinol maleate", "values": [{"measurement": "Flux", "setting": "[2]; listed as M maleate", "result": "41.3 ug/cm^2/h and 91.3 ug/cm^2/h and 85.3 ug/cm^2/h and 93.9 ug/cm^2/h"}, {"measurement": "Mean flux ± sd", "setting": "[2]", "result": "78.0 ± 24.7", "unit": "ug/cm^2/h"}, {"measurement": "Solubility at 32° C.", "setting": "[3]; measured by HPLC", "result": "105* mg/ml"}]}, {"compound": "Meptazinol tosylate", "values": [{"measurement": "Skin flux / permeation compared with other forms (in words)", "setting": "[2]", "result": "less effective in improving flux"}, {"measurement": "Flux", "setting": "[2]; listed as M tosylate", "result": "158.8 ug/cm^2/h and 165.0 ug/cm^2/h and 90.9 ug/cm^2/h and 39.6 ug/cm^2/h and 273.7 ug/cm^2/h and 87.4 ug/cm^2/h"}, {"measurement": "Mean flux ± sd", "setting": "[2]", "result": "135.9 ± 82.5", "unit": "ug/cm^2/h"}, {"measurement": "Solubility at 32° C.", "setting": "[3]; [5]", "result": "˜140** mg/ml"}]}, {"compound": "Meptazinol trifluoroacetate", "values": [{"measurement": "Skin flux / permeation compared with other forms (in words)", "setting": "[2]", "result": "more rapidly absorbed"}, {"measurement": "Flux", "setting": "[2]; listed as M TFA", "result": "29.1 ug/cm^2/h and 422.2 ug/cm^2/h and 163.8 ug/cm^2/h and 282.3 ug/cm^2/h"}, {"measurement": "Mean flux ± sd", "setting": "[2]", "result": "224.4 ± 167.6", "unit": "ug/cm^2/h"}, {"measurement": "Solubility at 32° C.", "setting": "[3]; measured by HPLC", "result": "170* mg/ml"}]}]}
